For this test, the target named is T1, HiC (Mycothermus thermophilus, UniProt A0A075B5G4).
T1 construct: commercial enzyme Novozym 51032 (Strem), used as supplied
T1 sequence (A0A075B5G4 1-194): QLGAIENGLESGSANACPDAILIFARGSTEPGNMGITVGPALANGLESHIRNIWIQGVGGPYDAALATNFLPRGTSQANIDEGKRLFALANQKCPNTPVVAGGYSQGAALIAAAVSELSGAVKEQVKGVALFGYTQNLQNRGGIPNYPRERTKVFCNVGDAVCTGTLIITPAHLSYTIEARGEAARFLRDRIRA
Kind of test: HPLC of BHET to MHET conversion. The class given is biochemical. Conditions: 24% acetonitrile, 76% 100 mM potassium phosphate pH 7, 40 °C, 0.1 g HiC per g BHET; product MHET.

Structures are written as SMILES.

Consider `O=C(OCCO)c1ccc(C(=O)OCCO)cc1` [bis(2-hydroxyethyl) terephthalic acid], for which the “HPLC of BHET to MHET conversion” value is listed as “enzymatic hydrolysis of BHET using Humicola insolens cutinase (HiC”.

For the origin of these results see PMC11587651, “Increased cytoplasmic expression of PETase enzymes in E. coli” (Microbial Cell Factories, 2024).
